Assays:
STEME [1] = experiment: Pre-emergence action against STEME, 1280 g/ha; assay type: in vivo, Stellaria media; conditions: scored visually after about 3 weeks vs untreated controls (100% = plants have died)
Procedure, shortened: (§1)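 Greenhouse pre-emergence test on sown seeds in sandy loam; soil-surface spray of formulated compound with 0.5% additive at 600 L/ha water. Scored visually, % vs untreated, after about 3 weeks.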

MATIN [2] = experiment: Pre-emergence action against MATIN, 1280 g/ha; assay type: in vivo, Tripleurospermum inodorum (Matricaria inodora); conditions: scored visually after about 3 weeks vs untreated controls (100% = plants have died)
Procedure, shortened: as §1

KCHSC = experiment: Pre-emergence action against KCHSC, 1280 g/ha; assay type: in vivo, Bassia scoparia; conditions: scored visually after about 3 weeks vs untreated controls (100% = plants have died)
Text: 1. Pre-Emergence Herbicidal Effect and Crop Plant Compatibility a) Seeds of mono- and dicotyledonous weed plants are placed in plastic pots in sandy loam soil (doubly sown with one species each of mono- or dicotyledonous weed plants per pot) and covered with soil. The compounds of the invention, formulated in the form of wettable powders (WP) or as emulsion concentrates (EC), are then applied onto the surface of the covering soil as aqueous suspension or emulsion with addition of 0.5% additive at a water application rate equivalent to 600 litres per hectare. After the treatment, the pots are placed in a greenhouse and kept under good growth conditions for the trial plants. After about 3 weeks, the effect of the preparations is scored visually in comparison with untreated controls as percentages. For example, 100% activity=the plants have died, 0% activity=like control plants. 1. Pre-Emergence Effectiveness Tables 1 to 12 below show the effects of selected compounds of the general formula (I) according to Tables 1 and 2 on various harmful plants and at an application rate corresponding to 1280 g/ha, which were obtained by the experimental procedure mentioned above.

DIGSA [3] = experiment: Pre-emergence action against DIGSA, 1280 g/ha; assay type: in vivo, Digitaria sanguinalis; conditions: visual scoring after about 3 weeks vs untreated controls, 100% = plants have died, 0% = like control plants
Procedure, shortened: as §1

AMARE [4] = experiment: Pre-emergence action against AMARE, 1280 g/ha; assay type: in vivo, Amaranthus retroflexus; conditions: scored visually after about 3 weeks vs untreated controls (100% = plants have died)
Procedure, shortened: as §1

ALOMY [5] = experiment: Post-emergence action against ALOMY, 1.28 kg/ha; assay type: in vivo, Alopecurus myosuroides; conditions: dosage 1280 g/ha, visual rating about 3 weeks after treatment vs untreated controls
Procedure, shortened: (§2)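 Activity scored visually roughly 3 weeks after treatment against untreated plants (0% = as control, 100% = dead). Plants grown in sandy loam in greenhouse, treated at one-leaf stage, 2–3 weeks post-sowing, with WP/EC spray containing 0.5% additive at 600 l/ha.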

SETVI [6] = experiment: Pre-emergence action against SETVI, 1280 g/ha; assay type: in vivo, Setaria viridis; conditions: visual scoring after about 3 weeks vs untreated controls, 100% = plants have died, 0% = like control plants
Procedure, shortened: as §1

POAAN [7] = experiment: Post-emergence action against POAAN, 1.28 kg/ha; assay type: in vivo, Poa annua; conditions: dosage 1280 g/ha, visual rating about 3 weeks after treatment vs untreated controls
Procedure, shortened: as §2

POAAN [8] = experiment: Pre-emergence action against POAAN, 1280 g/ha; assay type: in vivo, Poa annua; conditions: visual scoring after about 3 weeks vs untreated controls, 100% = plants have died, 0% = like control plants
Procedure, shortened: as §1

VERPE [9] = experiment: Post-emergence action against VERPE, 1.28 kg/ha; assay type: in vivo, Veronica persica; conditions: dosage 1280 g/ha, visual rating about 3 weeks after treatment vs untreated controls (100% = plants died)
Procedure, shortened: as §2

MATIN [10] = experiment: Post-emergence action against MATIN, 1.28 kg/ha; assay type: in vivo, Tripleurospermum inodorum (Matricaria inodora); conditions: dosage 1280 g/ha, visual rating about 3 weeks after treatment vs untreated controls (100% = plants died)
Procedure, shortened: as §2

LOLRI [11] = experiment: Pre-emergence action against LOLRI, 1280 g/ha; assay type: in vivo, Lolium rigidum; conditions: visual scoring after about 3 weeks vs untreated controls, 100% = plants have died, 0% = like control plants
Procedure, shortened: as §1

ALOMY [12] = experiment: Pre-emergence action against ALOMY, 1280 g/ha; assay type: in vivo, Alopecurus myosuroides; conditions: visual scoring after about 3 weeks vs untreated controls, 100% = plants have died, 0% = like control plants
Procedure, shortened: as §1

VERPE [13] = experiment: Pre-emergence action against VERPE, 1280 g/ha; assay type: in vivo, Veronica persica; conditions: scored visually after about 3 weeks vs untreated controls (100% = plants have died)
Procedure, shortened: as §1

LOLRI [14] = experiment: Post-emergence action against LOLRI, 1.28 kg/ha; assay type: in vivo, Lolium rigidum; conditions: dosage 1280 g/ha, visual rating about 3 weeks after treatment vs untreated controls
Procedure, shortened: as §2

ECHCG [15] = experiment: Post-emergence action against ECHCG, 1.28 kg/ha; assay type: in vivo, Echinochloa crus-galli; conditions: dosage 1280 g/ha, visual rating about 3 weeks after treatment vs untreated controls
Procedure, shortened: as §2

ABUTH = experiment: Post-emergence action against ABUTH, 1.28 kg/ha; assay type: in vivo, Abutilon theophrasti; conditions: dosage 1280 g/ha, visual rating about 3 weeks after treatment vs untreated controls (100% = plants died)
Procedure, shortened: as §2

ECHCG [16] = experiment: Pre-emergence action against ECHCG, 1280 g/ha; assay type: in vivo, Echinochloa crus-galli; conditions: visual scoring after about 3 weeks vs untreated controls, 100% = plants have died, 0% = like control plants
Procedure, shortened: as §1

STEME [17] = experiment: Post-emergence action against STEME, 1.28 kg/ha; assay type: in vivo, Stellaria media; conditions: dosage 1280 g/ha, visual rating about 3 weeks after treatment vs untreated controls (100% = plants died)
Procedure, shortened: as §2

AMARE [18] = experiment: Post-emergence action against AMARE, 1.28 kg/ha; assay type: in vivo, Amaranthus retroflexus; conditions: dosage 1280 g/ha, visual rating about 3 weeks after treatment vs untreated controls (100% = plants died)
Procedure, shortened: as §2

DIGSA [19] = experiment: Post-emergence action against DIGSA, 1.28 kg/ha; assay type: in vivo, Digitaria sanguinalis; conditions: dosage 1280 g/ha, visual rating about 3 weeks after treatment vs untreated controls
Procedure, shortened: as §2

SETVI [20] = experiment: Pre-emergence action at 320 g/ha against SETVI; assay type: in vivo, Setaria viridis; conditions: visual scoring after about 3 weeks vs untreated controls
Procedure, shortened: (§3)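 Effect rated visually (% vs untreated control) about 3 weeks after pre-emergence spraying of WP/EC formulation onto soil; spray carried 0.5% additive at 600 l/ha water.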

ALOMY [21] = experiment: Post-emergence action against ALOMY, 320 g/ha; assay type: in vivo, Alopecurus myosuroides; conditions: dosage 320 g/ha, visual rating about 3 weeks after treatment vs untreated controls (100% = plants died)
Text: Accordingly, the compounds of the invention have good herbicidal action against a broad spectrum of weed grasses and broad-leaved weeds and are therefore suitable for controlling unwanted vegetation by the post-emergence method. • b) Seeds of monocotyledonous and dicotyledonous weeds and crop plants are placed in sandy loam in plastic or organic planting pots, covered with soil and cultivated in a greenhouse under controlled growth conditions. 2 to 3 weeks after sowing, the test plants are treated at the one-leaf stage. The compounds of the invention, formulated in the form of wettable powders (WP) or as emulsion concentrates (EC), are then sprayed onto the green parts of the plants as aqueous suspension or emulsion with addition of 0.5% additive at a water application rate of 600 l/ha (converted). After the test plants have been kept in the greenhouse under optimum growth conditions for about 3 weeks, the activity of the preparations is rated visually in comparison to untreated controls. For example, 100% activity=the plants have died, 0% activity=like control plants. Tables 39 to 49 below show the effects of selected compounds of the general formula (I) according to Tables 1 and 2 on various harmful plants and at an application rate corresponding to 320 g/ha, which were obtained by the experimental procedure mentioned above.

MATIN [22] = experiment: Pre-emergence action at 320 g/ha against MATIN; assay type: in vivo, Tripleurospermum inodorum (Matricaria inodora); conditions: visual scoring after about 3 weeks vs untreated controls
Procedure, shortened: as §3

VIOTR = experiment: Pre-emergence action at 320 g/ha against VIOTR; assay type: in vivo, Viola tricolor; conditions: dosage 320 g/ha
Procedure, shortened: as §3

AMARE [23] = experiment: Pre-emergence action at 320 g/ha against AMARE; assay type: in vivo, Amaranthus retroflexus; conditions: visual scoring after about 3 weeks vs untreated controls
Procedure, shortened: as §3

ALOMY [24] = experiment: Pre-emergence action at 320 g/ha against ALOMY; assay type: in vivo, Alopecurus myosuroides; conditions: scored visually after about 3 weeks vs untreated controls (100% = plants have died)
Procedure, shortened: as §3

VERPE [25] = experiment: Pre-emergence action at 320 g/ha against VERPE; assay type: in vivo, Veronica persica; conditions: visual scoring after about 3 weeks vs untreated controls
Procedure, shortened: as §3

POLCO = experiment: Pre-emergence action at 320 g/ha against POLCO; assay type: in vivo, Fallopia convolvulus (Polygonum convolvulus); conditions: visual scoring after about 3 weeks vs untreated controls
Procedure, shortened: as §3

DIGSA [26] = experiment: Pre-emergence action at 320 g/ha against DIGSA; assay type: in vivo, Digitaria sanguinalis; conditions: visual scoring after about 3 weeks vs untreated controls
Procedure, shortened: as §3

| Structure (SMILES) | Pre-emergence action against STEME (STEME [1]) | Pre-emergence action against MATIN (MATIN [2]) | Pre-emergence action against KCHSC (KCHSC) | Pre-emergence action against DIGSA (DIGSA [3]) | Pre-emergence action against AMARE (AMARE [4]) | Post-emergence action against ALOMY (ALOMY [5]) | Pre-emergence action against SETVI (SETVI [6]) | Post-emergence action against POAAN (POAAN [7]) | Pre-emergence action against POAAN (POAAN [8]) | Post-emergence action against VERPE (VERPE [9]) | Post-emergence action against MATIN (MATIN [10]) | Pre-emergence action against LOLRI (LOLRI [11]) | Pre-emergence action against ALOMY (ALOMY [12]) | Pre-emergence action against VERPE (VERPE [13]) | Post-emergence action against ECHCG (ECHCG [15]) | Post-emergence action against ABUTH (ABUTH) | Pre-emergence action against ECHCG (ECHCG [16]) | Post-emergence action against STEME (STEME [17]) | Post-emergence action against DIGSA (DIGSA [19]) | also measured |
| --- | --- | --- | --- | --- | --- | --- | --- | --- | --- | --- | --- | --- | --- | --- | --- | --- | --- | --- | --- | --- |
| O=C(COc1nn(-c2ccccc2F)c(-c2ccc(F)cn2)c1Br)NO [II-017] | 90% | 90% | 100% | 100% | 100% | 100% | 100% | 100% | 100% | 90% | 90% |  |  |  |  |  |  |  |  |  |
| C[C@@H](Oc1nn(-c2ccccc2F)c(-c2cnccn2)c1Br)C(=O)O [Example I-002] | 100% | 100% | 100% | 100% | 100% |  | 100% |  | 100% | 90% |  | 90% | 90% | 100% |  |  |  |  |  |  |
| CCOC(=O)COc1nn(-c2ccccc2C)c(-c2ccc(F)nc2)c1I [VII-058] | 100% | 100% | 90% | 100% | 100% | 100% | 100% | 100% | 100% | 90% | 90% | 100% | 90% | 100% | 100% | 90% | 100% | 90% | 100% | Post-emergence action against LOLRI (LOLRI [14]): 100%; Post-emergence action against AMARE (AMARE [18]): 100% |
| CCOC(=O)COc1nn(-c2ccccc2C)c(-c2ccc(F)nc2)c1C(F)(F)F [VII-105] | 100% | 90% |  | 100% | 100% | 100% | 100% | 100% | 100% | 90% | 100% | 100% | 100% | 100% | 100% |  | 100% | 100% | 100% | Pre-emergence action against SETVI in % (SETVI [20]): 80%; Post-emergence action against ALOMY (ALOMY [21]): 90%; Pre-emergence action against MATIN in % (MATIN [22]): 100%; Pre-emergence action against VIOTR in % (VIOTR): 90%; Pre-emergence action against AMARE in % (AMARE [23]): 90%; Pre-emergence action at 320 g/ha against ALOMY in % (ALOMY [24]): 90%; Pre-emergence action against VERPE in % (VERPE [25]): 90%; Pre-emergence action against POLCO in % (POLCO): 90%; Pre-emergence action against DIGSA in % (DIGSA [26]): 100% |
| O=C(O)C1CCN(C(=O)COc2nn(-c3ccccc3F)c(-c3cncc(F)c3)c2Br)C1 (stereo not shown) [Example X-040] | 90% | 90% | 90% | 90% | 90% | 100% | 90% | 100% | 90% | 100% | 100% | 90% |  | 90% |  | 90% | 90% |  | 90% |  |
